Reference: patent US7872153B2, “Salt of aliskiren with sulfuric acid” (Novartis AG, priority 2006, dated 2011)

Key:
[1] = dynamic vapour sorption (DVS): water absorption or loss as a function of relative humidity; format: physicochemical; details: for change in mass in % (sorption) / change in mass in % (desorption): 25° C., 9.5 mg sample, 4 hours; for change in mass in % (sorption): cycle 0-95%; for change in mass in % (desorption): cycle 40-0
Excerpt: A clear characterisation of this property is achieved by means of isothermal measurements over predetermined time intervals and predetermined relative humidity using dynamic vapour sorption (DVS from the company Surface Measurement Systems LTD, Marlow, Buckinghamshire, UK). […] The following cycles of changes in relative humidity are shown: 40-0; 0-95% relative humidity: The measurement error of this sorption method based on thermogravimetry is about 0.1%.

[2] = hygroscopicity of the drug substance (statement); format: physicochemical; details: background statement

| Compound | water absorption or loss ([1]; above 40% relative humidity) | water uptake compared with the hemifumarate ([1]; below 40% relative humidity) | change in mass in % (sorption) ([1]; relative humidity 0%) [%] | change in mass in % (desorption) ([1]; relative humidity 0%) [%] | change in mass in % (sorption) ([1]; relative humidity 10%) [%] | change in mass in % (desorption) ([1]; relative humidity 10%) [%] | change in mass in % (sorption) ([1]; relative humidity 20%) [%] | change in mass in % (desorption) ([1]; relative humidity 20%) [%] | change in mass in % (sorption) ([1]; relative humidity 30%) [%] | change in mass in % (desorption) ([1]; relative humidity 30%) [%] | change in mass in % (sorption) ([1]; relative humidity 40%) [%] | change in mass in % (desorption) ([1]; relative humidity 40%) [%] | change in mass in % (sorption) ([1]; relative humidity 50%) [%] | change in mass in % (sorption) ([1]; relative humidity 60%) [%] | change in mass in % (sorption) ([1]; relative humidity 70%) [%] | change in mass in % (sorption) ([1]; relative humidity 80%) [%] | change in mass in % (sorption) ([1]; relative humidity 90%) [%] | change in mass in % (sorption) ([1]; relative humidity 95%) [%] | hygroscopicity [2] |
| --- | --- | --- | --- | --- | --- | --- | --- | --- | --- | --- | --- | --- | --- | --- | --- | --- | --- | --- | --- |
| COCCCOc1cc(C[C@@H](C[C@H](N)[C@@H](O)C[C@H](C(=O)NCC(C)(C)C(N)=O)C(C)C)C(C)C)ccc1OC.O=S(=O)(O)O [hydrogen sulfate salt of aliskiren] | significant water absorption or loss | does not take up as much water as the hemifumarate | 0.00 | 0.00 | 0.46 | 0.88 | 0.84 | 1.25 | 1.31 | 1.67 | 1.98 | 2.20 | 3.39 | 7.07 | 8.88 | 13.43 | 25.83 | 40.62 |  |
| COCCCOc1cc(C[C@@H](C[C@H](N)[C@@H](O)C[C@H](C(=O)NCC(C)(C)C(N)=O)C(C)C)C(C)C)ccc1OC [aliskiren, 2(S),4(S),5(S),7(S)—N-(3-amino-2,2-dimethyl-3-oxopropyl)-2,7-di(1-methylethyl)-4-hydroxy-5-amino-8-[4-methoxy-3-(3-methoxy-propoxy)phenyl]-octanamide] |  |  |  |  |  |  |  |  |  |  |  |  |  |  |  |  |  |  | highly hygroscopic |
